{"source": "patent US20210038681A1", "about": "“PHARMACEUTICAL COMPOSITION FOR TREATING VIRAL HEPATITIS C” (priority 2018, published 2021)", "key": {"[1]": {"system": "HCV 1a Wild-type replicon", "assay": "microbe, parasite or virus in culture", "details": "Hepatitis C virus, Huh-7, read-out: Mean EC50 (nM) ± SD"}, "[2]": {"system": "Wild-type HCV 1b replicon", "format": "cell-based", "details": "Hepatitis C virus, read-out: Mean EC50 (nM)"}}, "data": [{"smiles": "CC(C)(C)OC(=O)N[C@H]1CCCCC/C=C\\[C@@H]2C[C@@]2(C(=O)NS(=O)(=O)C2CC2)NC(=O)[C@@H]2C[C@@H](OC(=O)N3Cc4cccc(F)c4C3)CN2C1=O", "note": "[ASC08, Danoprevir]", "values": [{"measurement": "EC50", "setting": "[1]", "result": 5.4, "unit": "nM"}, {"measurement": "EC50", "setting": "[2]", "result": 0.7, "unit": "nM"}]}]}
